Experimental findings from US20170000749A1, “Methods for Treating Cognitive Disorders Using Inhibitors of Histone Deacetylase” (Forum Pharmaceuticals, Inc., priority 2008, published 2017) are described below.

SMILES strings stand for the structures. Like-named read-outs stand apart in the source and are kept apart here. Where only a bound is given, the exact number is not on record here.

Assay [1] has as its target one or more of HDAC-1, HDAC-2, HDAC-3, HDAC-4, HDAC-5, HDAC-6, HDAC-7, HDAC-8, HDAC-9, HDAC-10 and HDAC-11. Nature of the assay: Inhibition of Histone Deacetylase Enzymatic Activity (Boc-Lys(Ac)-AMC substrate, Fluor-de-Lys developer). It counts as biochemical. To be noted: read-out: HDAC Inhibition (IC50 μM) HDAC Enzyme. The method, then:
The following protocol is used to assay the compounds of the disclosure.
The mixture is pre-incubated for 5 minutes at room temperature. The reaction is started by bringing the temperature to 37° C. and adding 16 μl substrate. Total reaction volume is 50 μl.
In the Tables 8, 9 and 10, A≦0.05 μM; 0.05 μM<B≦0.1 μM; 0.1 μM<C≦1 μM; and 1 μM<D≦10 μM.

Assay [2] has as its system HDAC activity in primary mouse cortical cultures. Nature of the assay: Whole-Cell Histone Deacetylase (HDAC) Inhibition Assay in Primary Mouse Cortical Cultures. It counts as cell-based. Summed up:
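Primary neocortical neurons from E17 Balb/C mouse embryos were plated at 50000 cells/well and treated at DIV9 with ten-point DMSO dilutions for 16-18 h at 37° C, in triplicate. BOC-Lys(Ac)-AMC substrate was then added for 1 h. Fluor de Lys developer containing 1 uM TSA produced a fluorophore, which was read.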

[3] abbreviates: whole-cell (WC), mouse cortical neurons, Table 8, read-out: HDAC Inhibition (IC50 μM) WC mouse cortical neurons.
[4] abbreviates: whole-cell (WC), mouse cortical neurons, Table 9, read-out: HDAC Inhibition (IC50 μM) WC mouse cortical neurons.
[5] abbreviates: whole-cell (WC), mouse cortical neurons, Table 10, read-out: HDAC Inhibition (IC50 μM) WC mouse cortical neurons.

As to `CCCc1cccc2c1Oc1ccccc1N=C2c1ccc(C(=O)NO)cc1` [(Z)—N-hydroxy-4-(4-propyldibenzo[b,f][1,4]oxazepin-11-yl)benzamide], the IC50 (usually the concentration at which inhibition is half-maximal) is 0.1 to 1 µM in assay [1] (Table 8) and above 15 µM in assay [2] (setting [3]).
Turning to `O=C(NO)c1cnc(N2C[C@@H]3C[C@H]2CN3c2ccccc2C(F)(F)F)nc1` [N-hydroxy-2-((1S,4S)-5-(2-(trifluoromethyl)phenyl)-2,5-diazabicyclo[2.2.1]heptan-2-yl)pyrimidine-5-carboxamide], the half-inhibitory concentration (IC50) lay in the range of 0.1 to 1 µM in assay [1] (Table 9) and 1 to 5 µM in assay [2] (setting [4]).
For `O=C(NO)c1ccc(C2=Nc3ccccc3Oc3ccccc32)o1` [(E)-5-(dibenzo[b,f][1,4]oxazepin-11-yl)-N-hydroxyfuran-2-carboxamide], the values for the half-inhibitory concentration (IC50) in assay [1] (Table 8) and in assay [2] (setting [3]) were 1 to 10 µM and above 15 µM, respectively.
Turning to `O=C(NO)c1cnc(N2C[C@@H]3C[C@H]2CN3c2ccc(Cl)cc2)nc1` [2-((1S,4S)-5-(4-chlorophenyl)-2,5-diazabicyclo[2.2.1]heptan-2-yl)-N-hydroxypyrimidine-5-carboxamide], the values for the IC50 in assay [1] (Table 9) and in assay [2] (setting [4]) were below 0.05 µM and below 1 µM, respectively.
On the same counts, the results for `O=C(NO)c1cnc(N2C[C@@H]3C[C@H]2CN3)nc1` [2-((1S,4S)-2,5-diazabicyclo[2.2.1]heptan-2-yl)-N-hydroxypyrimidine-5-carboxamide] are 0.1 to 1 µM and 5 to 15 µM.
The matching figures for `O=C(NO)c1cnc(N2C[C@@H]3C[C@H]2CN3c2ccc3nonc3c2)nc1` [2-((1S,4S)-5-(benzo[c][1,2,5]oxadiazol-5-yl)-2,5-diazabicyclo[2.2.1]heptan-2-yl)-N-hydroxypyrimidine-5-carboxamide]: below 0.05 µM and below 1 µM.
For `O=C(NO)c1ccc(CNC2=Nc3ccccc3N(C3CC3)c3ccccc32)cc1` [(E)-4-((5-cyclopropyl-5H-dibenzo[b,e][1,4]diazepin-11-ylamino)methyl)-N-hydroxybenzamide], the half-maximal inhibitory concentration (IC50) in assay [1] (Table 8) is 0.1 to 1 µM; in assay [2] (setting [3]) it was 5 to 15 µM.
The matching figures for `N#Cc1ccc2c(c1)Oc1ccccc1C(c1ccc(C(=O)NO)cc1)=N2` [(Z)-4-(7-cyanodibenzo[b,f][1,4]oxazepin-11-yl)-N-hydroxybenzamide]: below 0.05 µM and 5 to 15 µM.
Take `O=C(NO)c1ccc(OCCN2C(=O)CCOc3ccccc32)cc1`: the IC50 was below 0.05 µM in assay [1] (Table 10) and below 1 µM in assay [2] (setting [5]).
Consider `O=C(NO)c1cnc(N2C[C@@H]3C[C@H]2CN3c2ccccc2)nc1` [N-hydroxy-2-((1S,4S)-5-phenyl-2,5-diazabicyclo[2.2.1]heptan-2-yl)pyrimidine-5-carboxamide], for which the values for the IC50 in assay [1] (Table 9) and in assay [2] (setting [4]) were 0.05 to 0.1 µM and below 1 µM, respectively.
For the compound `O=C(NO)c1ccc(OCCN2C(=O)c3cccnc3Oc3ccccc32)cc1`, the half-inhibitory concentration (IC50) in assay [1] (Table 10) is below 0.05 µM; in assay [2] (setting [5]), below 1 µM.
On the same counts, the results for `O=C(CCCCCCCN1C(=O)c2ccccc2Oc2ccccc21)NO` [N-hydroxy-8-(11-oxodibenzo[b,f][1,4]oxazepin-10(11H)-yl)octanamide] are 0.05 to 0.1 µM and 1 to 5 µM.
As to `O=C(CCCCCCN1c2ccccc2C=Cc2ccccc21)NO` [(Z)-7-(5H-dibenzo[b,f]azepin-5-yl)-N-hydroxyheptanamide], the half-maximal inhibitory concentration (IC50) in assay [1] (Table 10) was below 0.05 µM; in assay [2] (setting [5]) it was 1 to 5 µM.
On the same counts, the results for `O=C(NO)c1cnc(N2CCn3c(nnc3C(F)(F)F)C2)nc1` [N-hydroxy-2-(3-(trifluoromethyl)-5,6-dihydro-[1,2,4]triazolo[4,3-a]pyrazin-7(8H)-yl)pyrimidine-5-carboxamide] are 0.05 to 0.1 µM and 1 to 5 µM.
The matching figures for `O=C(Cc1ccc(CN2C(=O)c3ccccc3Oc3ccccc32)cc1)NO` [N-hydroxy-2-(4-((11-oxodibenzo[b,f][1,4]oxazepin-10(11H)-yl)methyl)phenyl)acetamide]: 0.1 to 1 µM and 1 to 5 µM.
As to `O=C(NO)c1ccc(N2C[C@@H]3C[C@H]2CN3c2cccc(C(F)(F)F)c2)cc1` [N-hydroxy-4-((1S,4S)-5-(3-(trifluoromethyl)phenyl)-2,5-diazabicyclo[2.2.1]heptan-2-yl)benzamide], the half-inhibitory concentration (IC50) in assay [1] (Table 9) lay within 0.1 to 1 µM; in assay [2] (setting [4]), 1 to 5 µM.
Take `O=C(CCn1cc(CN2C(=O)c3ccccc3Oc3ccccc32)nn1)NO` [N-hydroxy-3-(4-((11-oxodibenzo[b,f][1,4]oxazepin-10(11H)-yl)methyl)-1H-1,2,3-triazol-1-yl)propanamide]: the IC50 is 0.1 to 1 µM in assay [1] (Table 10) and 1 to 5 µM in assay [2] (setting [5]).
As for `CCN1c2ccccc2N=C(c2ccc(C(=O)NO)cc2)c2ccccc21` [(Z)-4-(5-ethyl-5H-dibenzo[b,e][1,4]diazepin-11-yl)-N-hydroxybenzamide], the IC50 in assay [1] (Table 8) lay within 0.05 to 0.1 µM; in assay [2] (setting [3]), 1 to 5 µM.
`O=C(CCCCCCON=C1c2ccccc2CCc2ccccc21)NO`: the values for the IC50 in assay [1] (Table 10) and in assay [2] (setting [5]) were 0.1 to 1 µM and 1 to 5 µM, respectively.
With `O=C(NO)c1cnc(N2C[C@@H]3C[C@H]2CN3c2cccc(OC(F)(F)F)c2)nc1` [N-hydroxy-2-((1S,4S)-5-(3-(trifluoromethoxy)phenyl)-2,5-diazabicyclo[2.2.1]heptan-2-yl)pyrimidine-5-carboxamide], the IC50 in assay [1] (Table 9) was below 0.05 µM; in assay [2] (setting [4]), below 1 µM.
`O=C(NO)c1ccc(ON=C2c3ccccc3CCc3ccccc32)cc1`: the IC50 fell in the range of 0.1 to 1 µM in assay [1] (Table 10) and 5 to 15 µM in assay [2] (setting [5]).
In the case of `O=C(NO)c1ccc(Cn2c(=O)c3ccccc3c3ccccc32)cc1` [N-hydroxy-4-((6-oxophenanthridin-5(6H)-yl)methyl)benzamide], the values for the half-maximal inhibitory concentration (IC50) in assay [1] (Table 10) and in assay [2] (setting [5]) were below 0.05 µM and below 1 µM, respectively.
In the case of `CN1C(=O)CN=C(c2ccccc2)c2ccc(/C=C/C(=O)NO)cc21` [(E)-N-hydroxy-3-((Z)-1-methyl-2-oxo-5-phenyl-2,3-dihydro-1H-benzo[e][1,4]diazepin-8-yl)acrylamide], the IC50 in assay [1] (Table 10) fell in the range of 0.1 to 1 µM; in assay [2] (read-out: HDAC Inhibition (IC50 μM) WC mouse cortical neurons, Table 10) it was 1 to 5 µM.
For `O=C(NO)c1cnc(N2C[C@@H]3C[C@H]2CN3c2cc(C(F)(F)F)ccn2)nc1` [N-hydroxy-2-((1S,4S)-5-(4-(trifluoromethyl)pyridin-2-yl)-2,5-diazabicyclo[2.2.1]heptan-2-yl)pyrimidine-5-carboxamide], the IC50 in assay [1] (Table 9) is below 0.05 µM; in assay [2] (setting [4]) it was below 1 µM.
On the same counts, the results for `O=C(NO)c1cnc(N2C[C@@H]3C[C@H]2CN3c2ccc(F)cc2)nc1` [2-((1S,4S)-5-(4-fluorophenyl)-2,5-diazabicyclo[2.2.1]heptan-2-yl)-N-hydroxypyrimidine-5-carboxamide] are 0.05 to 0.1 µM and below 1 µM.
As for `O=C(NO)c1ccc(N2C[C@@H]3C[C@H]2CN3c2cccc(C(F)(F)F)c2)cc1F` [2-fluoro-N-hydroxy-4-((1S,4S)-5-(3-(trifluoromethyl)phenyl)-2,5-diazabicyclo[2.2.1]heptan-2-yl)benzamide], the IC50 is 0.1 to 1 µM in assay [1] (Table 9) and 5 to 15 µM in assay [2] (setting [4]).
As for `O=C(CCCCCCN1Cc2ccccc2Oc2ccccc21)NO` [7-(dibenzo[b,f][1,4]oxazepin-10(11H)-yl)-N-hydroxyheptanamide], the 50% inhibitory concentration (IC50) is 0.1 to 1 µM in assay [1] (Table 10) and above 15 µM in assay [2] (setting [5]).
Consider `COCCN1c2ccccc2N=C(c2ccc(C(=O)NO)cc2)c2ccccc21` [(Z)—N-hydroxy-4-(5-(2-methoxyethyl)-5H-dibenzo[b,e][1,4]diazepin-11-yl)benzamide], for which the IC50 in assay [1] (Table 8) lay in the range of 0.1 to 1 µM; in assay [2] (setting [3]), 1 to 5 µM.
